Test results from the supplement of paper PMC11451515.

Test system: SEM cells
Test: cell viability relative to DMSO control; higher = less cytotoxic
Details: 48 h
Method in brief: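 NOMO1 or SEM (500 cells/well) or P12-Ichikawa (1000 cells/well) leukemia cells were adapted for at least four passages in each medium. They were seeded in 1536-well plates (5 μl) and pin-dosed with library compounds in DMSO over an 11-point threefold series, 47 μM to 0.79 nM. CellTiter-Glo One luminescence was read after 48 h at 37°C. Viability is the per-plate percentage relative to DMSO wells, with cell-free wells as background.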

[1] = HPLM + 10% dialyzed FBS, 0.000781 µM
[2] = HPLM + 10% dialyzed FBS, 0.00234 µM
[3] = HPLM + 10% dialyzed FBS, 0.00702 µM
[4] = HPLM + 10% dialyzed FBS, 0.0211 µM
[5] = HPLM + 10% dialyzed FBS, 0.0632 µM
[6] = HPLM + 10% dialyzed FBS, 0.19 µM
[7] = HPLM + 10% dialyzed FBS, 0.569 µM
[8] = HPLM + 10% dialyzed FBS, 1.71 µM
[9] = HPLM + 10% dialyzed FBS, 5.12 µM
[10] = HPLM + 10% dialyzed FBS, 15.4 µM
[11] = HPLM + 10% dialyzed FBS, 46.1 µM
[12] = RPMI 5 mM glucose + 10% FBS, 0.000781 µM
[13] = RPMI 5 mM glucose + 10% FBS, 0.00234 µM
[14] = RPMI 5 mM glucose + 10% FBS, 0.00702 µM
[15] = RPMI 5 mM glucose + 10% FBS, 0.0211 µM
[16] = RPMI 5 mM glucose + 10% FBS, 0.0632 µM
[17] = RPMI 5 mM glucose + 10% FBS, 0.19 µM
[18] = RPMI 5 mM glucose + 10% FBS, 0.569 µM
[19] = RPMI 5 mM glucose + 10% FBS, 1.71 µM
[20] = RPMI 5 mM glucose + 10% FBS, 5.12 µM
[21] = RPMI 5 mM glucose + 10% FBS, 15.4 µM
[22] = RPMI 5 mM glucose + 10% FBS, 46.1 µM
[23] = RPMI 5 mM glucose + 10% dialyzed FBS, 0.000781 µM
[24] = RPMI 5 mM glucose + 10% dialyzed FBS, 0.00234 µM
[25] = RPMI 5 mM glucose + 10% dialyzed FBS, 0.00702 µM
[26] = RPMI 5 mM glucose + 10% dialyzed FBS, 0.0211 µM
[27] = RPMI 5 mM glucose + 10% dialyzed FBS, 0.0632 µM
[28] = RPMI 5 mM glucose + 10% dialyzed FBS, 0.19 µM
[29] = RPMI 5 mM glucose + 10% dialyzed FBS, 0.569 µM
[30] = RPMI 5 mM glucose + 10% dialyzed FBS, 1.71 µM
[31] = RPMI 5 mM glucose + 10% dialyzed FBS, 5.12 µM
[32] = RPMI 5 mM glucose + 10% dialyzed FBS, 15.4 µM
[33] = RPMI 5 mM glucose + 10% dialyzed FBS, 46.1 µM

Row | SMILES | cell viability [1] | cell viability [2] | cell viability [3] | cell viability [4] | cell viability [5] | cell viability [6] | cell viability [7] | cell viability [8] | cell viability [9] | cell viability [10] | cell viability [11] | cell viability [12] | cell viability [13] | cell viability [14] | cell viability [15] | cell viability [16] | cell viability [17] | cell viability [18] | cell viability [19] | cell viability [20] | cell viability [21] | cell viability [22] | cell viability [23] | cell viability [24] | cell viability [25] | cell viability [26] | cell viability [27] | cell viability [28] | cell viability [29] | cell viability [30] | cell viability [31] | cell viability [32] | cell viability [33]
1 | Fc1ccc(C(c2ccc(F)cc2)N2CCN(C/C=C/c3ccccc3)CC2)cc1 | 113% | 126% | 109% | 102% | 116% | 76.8% | 111% | 109% | 55.8% | 96.2% | 81.6% | – | – | – | – | – | – | – | – | – | – | – | – | – | – | – | – | – | – | – | – | – | –
2 | O=C(NC1CCOCC1)c1ccc(-c2cc(-c3c[nH]nc3-c3ccccn3)ccn2)cc1 | 106% | 108% | 108% | 115% | 117% | 120% | 114% | 112% | 105% | 120% | 114% | 124% | 116% | 124% | 121% | 118% | 132% | 104% | 120% | 118% | 122% | 122% | 98.7% | 108% | 110% | 111% | 104% | 105% | 106% | 104% | 113% | 110% | 123%
3 | CCC1=C[C@@H]2CN(C1)Cc1c([nH]c3ccccc13)[C@@](C(=O)OC)(c1cc3c(cc1OC)N(C)[C@H]1[C@@](O)(C(=O)OC)[C@H](OC(C)=O)[C@]4(CC)C=CCN5CC[C@]31[C@@H]54)C2 | 119% | 117% | 110% | 92.7% | 75.9% | 32% | 25.5% | 24.1% | 23.6% | 26.7% | 17.3% | – | – | – | – | – | – | – | – | – | – | – | 108% | 106% | 99.7% | 86.5% | 62.9% | 30% | 23.9% | 22% | 24.9% | 26.3% | 12.4%
4 | CCC(=O)O[C@@]1([C@@H](C)C[C@H]2[C@@H]3CCC/4=C/C(=O)/C=C\[C@]4(C)[C@@]3(F)[C@@H](O)C[C@]12C)C(=O)CCl | 86% | 92.1% | 91.3% | 57.7% | 71.1% | 69.8% | 57% | 72.3% | 61.8% | 66.4% | 63.4% | 88.5% | 95.4% | 95.9% | 51.3% | 67.8% | 62.6% | 65.1% | 66.1% | 67.6% | 56% | 66.9% | 85.2% | 81% | 91.4% | 49.4% | 63.3% | 64.6% | 64.8% | 54.1% | 64.1% | 55.6% | 40.7%
5 | CNC(=O)c1cccc(-c2ccc3c(N4CCOC[C@@H]4C)nc(N4CCOC[C@@H]4C)nc3n2)c1 | 97.5% | 102% | 85.8% | 77.2% | 73.2% | 63.7% | 62.6% | 47.8% | 37.6% | 38.6% | 23.1% | 110% | 98.1% | 97% | 93.3% | 84.4% | 77.6% | 78.7% | 56.1% | 47.3% | 32.9% | 17.9% | 97.7% | 95.9% | 85.3% | 76% | 69.6% | 64.1% | 58.6% | 55.3% | 43% | 35% | 20.7%
6 | CCOC(=O)C/1=C(C)/NC(=S)NC1C2=CC=CC(=C2)O (configuration not stated) | 110% | 99.3% | 103% | 111% | 68.2% | 24.3% | 22.9% | 22.4% | 7.01% | 16% | 15.2% | 89.4% | 104% | 118% | 109% | 109% | 20.5% | 15.2% | 12% | 6.19% | 7.56% | 3.89% | 100% | 100% | 108% | 106% | 101% | 47.2% | 21.2% | 20.8% | 5.56% | 14.3% | 8.93%
7 | Cc1ccc(C(C)(O)c2nc3ccccc3s2)c(C)c1 (configuration not stated) | 75.7% | 95.1% | 106% | 82.9% | 108% | 114% | 6.4% | 76.6% | 94.2% | 62.4% | 63.5% | 91.7% | 110% | 94.2% | 102% | 107% | 123% | 7.03% | 70.7% | 102% | 61.2% | 63.2% | 77.1% | 112% | 93.7% | 114% | 91.1% | 115% | 8% | 69.7% | 97.4% | 56.5% | 56.6%
8 | ClC1=CC=C(CCCOC/2=N/NC(=O)C(=C2NCC3=CN=CC=C3)/Br)C=C1 | 105% | 115% | 112% | 115% | 116% | 115% | 70.8% | 30.2% | 32.7% | 16% | 7.78% | 121% | 119% | 130% | 113% | 104% | 114% | 103% | 65.1% | 72.2% | 26.9% | 8.69% | 116% | 133% | 123% | 112% | 125% | 126% | 101% | 93.8% | 84.1% | 49.7% | 10%
9 | O=C(O)c1ccccc1C(=O)Nc1ccc(-c2ccccc2)cc1 | 63.8% | 130% | 117% | 124% | 119% | 118% | 130% | 124% | 127% | 128% | 88.5% | – | – | – | – | – | – | – | – | – | – | – | – | – | – | – | – | – | – | – | – | – | –
